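These data come from cells grown in 96-well plates and exposed to compound for 48 hours at five concentrations. Definition used: TGI = concentration required for complete inhibition of growth.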

Test systems include ACHN renal; SK-MEL-28 melanoma; NCI-H460 lung; SR leukemia; OVCAR-5 ovarian; NCI-H23 lung; CAKI-1 renal; HL-60(TB) leukemia; NCI/ADR-RES ovarian; MDA-MB-435; SF-268 CNS; RPMI-8226 leukemia; OVCAR-3 ovarian; SN12C renal; MDA-MB-231 breast; CCRF-CEM leukemia; HOP-92 NSCLC; HCT-116 colon; SK-MEL-2 melanoma.
Holding throughout (assay): NCI anticancer screen, dose series, 48 h

Take `c1ccc([P+](Cc2ccc(C[P+](c3ccccc3)(c3ccccc3)c3ccccc3)cc2)(c2ccccc2)c2ccccc2)cc1`: the TGI in the assay on ACHN renal, in the assay with SK-MEL-28 melanoma, with NCI-H460 lung, in the assay on SR leukemia, in the assay with OVCAR-5 ovarian and in the assay on NCI-H23 lung was > 100 µM each time. Besides, the TGI in the assay with CAKI-1 renal, in the assay on HL-60(TB) leukemia, in the assay on NCI/ADR-RES ovarian, in the assay with MDA-MB-435, in the assay on SF-268 CNS and with RPMI-8226 leukemia was > 100 µM throughout. Also, the TGI is > 100 µM in the assay with OVCAR-3 ovarian; > 100 µM with SN12C renal; > 100 µM in the assay on MDA-MB-231 breast; > 100 µM in the assay on CCRF-CEM leukemia; 93.4 µM in the assay on HOP-92 NSCLC; > 100 µM in the assay with HCT-116 colon.
As to `Nc1ncnc2ccc(Sc3ccc4ncnc(N)c4c3)cc12`, the TGI in the assay with ACHN renal, in the assay on SK-MEL-28 melanoma, in the assay with NCI-H460 lung, in the assay with SR leukemia, with OVCAR-5 ovarian and in the assay on CAKI-1 renal was > 100 µM each time. Besides, the TGI in the assay on HL-60(TB) leukemia, in the assay on NCI/ADR-RES ovarian, in the assay on MDA-MB-435, in the assay with SF-268 CNS, in the assay on RPMI-8226 leukemia and in the assay with SK-MEL-2 melanoma was > 100 µM each time. Besides, the TGI with OVCAR-3 ovarian, in the assay on SN12C renal, in the assay on MDA-MB-231 breast, in the assay with CCRF-CEM leukemia, in the assay on HOP-92 NSCLC and with HCT-116 colon was > 100 µM in each case.
`CCCC1(NC(=O)C(F)(F)F)CC(OC)OC2COC(c3ccccc3)OC21` (stereo not given): the TGI in the assay with ACHN renal, with SK-MEL-28 melanoma, with NCI-H460 lung, in the assay on SR leukemia, in the assay on OVCAR-5 ovarian and in the assay with NCI-H23 lung was > 100 µM throughout. Besides, the TGI with CAKI-1 renal is > 100 µM; in the assay with HL-60(TB) leukemia, 95.3 µM; with NCI/ADR-RES ovarian, > 100 µM; in the assay with MDA-MB-435, > 100 µM; with SF-268 CNS it was > 100 µM; in the assay with SK-MEL-2 melanoma it was > 100 µM. For the same compound, the TGI in the assay with OVCAR-3 ovarian, in the assay with SN12C renal, in the assay with MDA-MB-231 breast, in the assay on CCRF-CEM leukemia, in the assay on HOP-92 NSCLC and with HCT-116 colon was > 100 µM each time.
For `CCNCCNc1c2ccccc2nc2ccccc12`, the TGI in the assay on ACHN renal is 1.37 µM; in the assay on NCI-H460 lung, 1.54 µM; in the assay with SR leukemia, 4.18 µM; in the assay on OVCAR-5 ovarian, 7.62 µM; in the assay with NCI-H23 lung, 3.36 µM; in the assay on CAKI-1 renal, 3.48 µM. In addition, the TGI is > 100 µM in the assay on HL-60(TB) leukemia; 19.5 µM in the assay with NCI/ADR-RES ovarian; 2.59 µM with MDA-MB-435; 5.52 µM in the assay on SF-268 CNS; 3.63 µM with SK-MEL-2 melanoma; 24.5 µM with OVCAR-3 ovarian. In addition, the TGI with SN12C renal was determined as 4.91 µM; in the assay with MDA-MB-231 breast, 3.02 µM; in the assay with CCRF-CEM leukemia, 8.63 µM; in the assay with HCT-116 colon, 7.99 µM.
Take `C=CCOc1ccc(/C(N=Nc2ccc([N+](=O)[O-])cc2)=N/NC(=O)c2ccccc2)cc1OC`: the TGI with ACHN renal, with SK-MEL-28 melanoma, with NCI-H460 lung, with SR leukemia, in the assay on OVCAR-5 ovarian and in the assay on NCI-H23 lung was > 100 µM throughout. For the same compound, the TGI with CAKI-1 renal, in the assay with HL-60(TB) leukemia, with NCI/ADR-RES ovarian, with MDA-MB-435, with SF-268 CNS and with SK-MEL-2 melanoma was > 100 µM each time. Also, the TGI with OVCAR-3 ovarian, in the assay on SN12C renal, in the assay with MDA-MB-231 breast, in the assay on CCRF-CEM leukemia, in the assay with HOP-92 NSCLC and in the assay on HCT-116 colon was > 100 µM each time.
Take `CC(=O)N1C(c2[nH]c3ccccc3c2-c2ccccc2)CCN1c1ccccc1` (stereo not given): the TGI in the assay with ACHN renal, in the assay with SK-MEL-28 melanoma, in the assay with NCI-H460 lung, in the assay with SR leukemia, in the assay on OVCAR-5 ovarian and in the assay on NCI-H23 lung was > 10 µM in each case. Also, the TGI in the assay on CAKI-1 renal, in the assay on HL-60(TB) leukemia, with NCI/ADR-RES ovarian, in the assay with MDA-MB-435, with SF-268 CNS and with RPMI-8226 leukemia was > 10 µM each time. Moreover, the TGI in the assay with SK-MEL-2 melanoma, with OVCAR-3 ovarian, in the assay with SN12C renal, with MDA-MB-231 breast, with CCRF-CEM leukemia and with HCT-116 colon was > 10 µM each time.
In the case of `CC(=O)CCCCC(=O)Nc1ccc(CC(NC(=O)OC(C)(C)C)C(=O)NCC(=O)OCc2ccccc2)cc1` (stereo not given), the TGI with ACHN renal was > 100 µM; in the assay with SK-MEL-28 melanoma, 35.4 µM; in the assay with NCI-H460 lung, 43 µM; with SR leukemia it was 56.9 µM; in the assay with OVCAR-5 ovarian it was > 100 µM; in the assay with NCI-H23 lung, 76.6 µM. In addition, the TGI with CAKI-1 renal was 29.1 µM; with HL-60(TB) leukemia it was 43.6 µM; in the assay on NCI/ADR-RES ovarian it was > 100 µM; in the assay with MDA-MB-435, 36 µM; in the assay with SF-268 CNS it was 48.3 µM; in the assay with RPMI-8226 leukemia, 39.5 µM. The TGI in the assay with OVCAR-3 ovarian is 27.9 µM; in the assay on SN12C renal, 64.4 µM; in the assay with MDA-MB-231 breast, 48.3 µM; in the assay on HOP-92 NSCLC, 68 µM; in the assay with HCT-116 colon, 37.8 µM.
As to `CC(=O)OCC1OC(SC2=N/C(=C\c3cc4c(=O)c5ccccc5sc4s3)C(=O)N2c2ccccc2)C(OC(C)=O)C(OC(C)=O)C1OC(C)=O` (stereo not given), the TGI in the assay on ACHN renal, in the assay with SK-MEL-28 melanoma, in the assay with NCI-H460 lung, in the assay with SR leukemia, in the assay with OVCAR-5 ovarian and with NCI-H23 lung was > 100 µM in each case. For the same compound, the TGI with CAKI-1 renal was > 100 µM; in the assay on HL-60(TB) leukemia, 53.3 µM; in the assay on NCI/ADR-RES ovarian it was > 100 µM; in the assay with MDA-MB-435, > 100 µM; in the assay on SF-268 CNS it was > 100 µM; with RPMI-8226 leukemia it was > 100 µM. Further, the TGI in the assay with SK-MEL-2 melanoma, in the assay on OVCAR-3 ovarian, with SN12C renal, in the assay with MDA-MB-231 breast and with HCT-116 colon was > 100 µM in each case.

The values are drawn from PubChem BioAssay (NCI).
